Measured values from PubChem BioAssay (NCI).
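Five concentrations, 48 hours, 96-well plates. At the TGI there is no net growth.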

Key:
Test in all cases: NCI anticancer screen, dose series, 48 h
SR leukemia = system: SR leukemia
SF-539 CNS = system: SF-539 CNS
UACC-62 melanoma = system: UACC-62 melanoma
MCF7 breast = system: MCF7 breast
CCRF-CEM leukemia = system: CCRF-CEM leukemia
HS 578T breast = system: HS 578T breast
SN12C renal = system: SN12C renal
SF-268 CNS = system: SF-268 CNS
DU-145 prostate = system: DU-145 prostate
HCC-2998 colon = system: HCC-2998 colon

Compound | TGI (SR leukemia) [µM] | TGI (SF-539 CNS) [µM] | TGI (UACC-62 melanoma) [µM] | TGI (MCF7 breast) [µM] | TGI (CCRF-CEM leukemia) [µM] | TGI (HS 578T breast) [µM] | TGI (SN12C renal) [µM] | TGI (SF-268 CNS) [µM] | TGI (DU-145 prostate) [µM] | TGI (HCC-2998 colon) [µM]
CC#CC(O)(C(=O)OCCCN(C)C)C1CCCCC1 (stereo not given) | > 100 | > 100 | > 100 | > 100 | > 100 | > 100 | > 100 | > 100 | > 100 | > 100
O=C1NC(=O)C(F)(n2cc(F)c(=O)[nH]c2=O)C(O)N1 (stereo not given) | > 10 | > 10 | > 10 | > 10 | > 10 | > 10 | > 10 | > 10 | > 10 | > 10
O=P12N(CCN1c1ccccc1)CCN2c1ccccc1 | > 100 | > 100 | > 100 | > 100 | > 100 | > 100 | > 100 | > 100 | > 100 | > 100
Cc1ccccc1N=Nc1c(O)c(S(=O)(=O)O)cc2cc(S(=O)(=O)O)ccc12 | > 100 | > 100 | > 100 | > 100 | > 100 | > 100 | > 100 | > 100 | > 100 | > 100
COC(=O)/C=C1\C(=O)N(C(C)=O)c2ccc(Br)cc21 | 13.5 | 9.65 | 25.3 | 16.8 | 4.84 | 36.8 | 18.3 | 21.1 | 25.5 | 31.9
Cc1ccc(NC(Nc2ccc(C)cc2C)=C(C(Cl)=C(Cl)Cl)[N+](=O)[O-])c(C)c1 | 11.3 | 43 | 31.9 | > 100 | 15.2 | > 100 | 33 | 33.2 | 27.9 | 32.4
Cc1cn([C@@H]2C[C@@H]2CO)c(=O)[nH]c1=O | > 100 | > 100 | > 100 | > 100 | > 100 | > 100 | > 100 | > 100 | > 100 | > 100
Nc1c(C(=O)O)nnc2cc(Cl)c(Cl)cc12 | > 100 | > 100 | > 100 | > 100 | > 100 | > 100 | > 100 | > 100 | > 100 | > 100
O=c1cc(N=Nc2ccc(Br)cc2)[nH]c(=S)[nH]1 | 74.1 | > 100 | > 100 | 42.7 | 54.5 | > 100 | > 100 | > 100 | > 100 | 38.6
COC(=O)C(N)CCCC(N)C(=O)NC(C)C(=O)NC(CCC(=O)NCCNCCNc1c2ccccc2nc2cccc([N+](=O)[O-])c12)C(N)=O (stereo not given) | > 100 | 14.2 | 27.1 | 58.5 | > 50.9 | 38.8 | 39.5 | 10.7 | > 66.1 | 34.2
Cc1ccn2c(=O)cc(CN3CCOCC3)nc2c1 | > 100 | > 100 | > 100 | > 100 | > 100 | > 100 | > 100 | > 100 | > 100 | > 100
COc1c(CC=C(C)C)c(O)c(C(CC(C)C)c2c(O)c3c(c(C(C)=O)c2O)OC(C(C)(C)O)C3)c(O)c1C(C)=O (stereo not given) | 6.93 | > 12.5 | > 12.5 | 9.87 | 9.74 | > 12.5 | > 12.5 | > 12.5 | > 12.5 | > 12.5
CCOc1cc(C2SCC(=O)N2c2ccc(Oc3ccc(Cl)cc3)c(Cl)c2)ccc1O (stereo not given) | 25.2 | 32.5 | 30.3 | 56.4 | 49.5 | 37.1 | 59.3 | 30.9 | 31.3 | 35.8
CC(=O)Nc1c(S(=O)(=O)c2ccccc2)c(C)c(C)n1CCN(C)C | > 100 | > 100 | > 100 | > 100 | > 100 | > 100 | > 100 | > 100 | > 100 | > 100
CC(ON(C(c1ccccc1)C(C)C)C(C)(C)C)c1ccccc1 (stereo not given) | 67.6 | 43.7 | 32.2 | 30 | 39.3 | 64.1 | 32.5 | 52.2 | 32.8 | 33.7
CC(C)OC(=O)c1ccc(CCC2=CC(=O)C=CC2=O)cc1 | > 25.3 | 17.1 | 28.8 | 47.7 | 10.9 | 50 | 26.5 | 28.6 | 37 | 32.6
C=C1C(=O)O[C@H]2C/C(C)=C/CC[C@@]3(C)O[C@](C)(CC[C@@H]3I)[C@@H](I)C[C@@H]12 | 8.2 | 14.4 | 12 | 9.61 | 13.3 | 26 | 16.4 | 14.4 | 11.8 | 10.8
O=C(CC(=O)N1N=C(N2CCCCC2)CC1c1ccccc1)Nc1ccccc1 (stereo not given) | > 100 | > 100 | > 100 | > 100 | > 100 | > 100 | > 100 | > 100 | > 100 | > 100
Cc1cc(S(=O)(=O)Nc2n[nH]c(Nc3ccc(Cl)cc3)n2)c(S)cc1Cl | > 100 | > 100 | > 100 | > 100 | > 100 | > 100 | > 100 | > 100 | > 100 | > 100
O=c1ccn(CC2(CO)CCC2)c(=O)[nH]1 | > 100 | > 100 | > 100 | > 100 | > 100 | > 100 | > 100 | > 100 | > 100 | > 100
